Data published in patent publication US11840686B2, “Modulation of prekallikrein (PKK) expression” (Ionis Pharmaceuticals, Inc., priority 2013, dated 2023).
Strand notation (5' to 3'): a small letter for the sugar, then the base; units joined by * are phosphorothioate-linked, units joined directly phosphodiester-linked; [ ] holds rarer units or linkages, { } end groups; capitals alone tell only the bases. e = 2'-O-(2-methoxyethyl) (MOE); k = constrained ethyl (cEt); [5mC] = 5-methylcytosine; d = 2'-deoxy (DNA)

Tested on: human PKK mRNA
Assay: Antisense inhibition of human PKK mRNA in HepaRG cells, 1,000 nM, MOE/deoxy/cEt oligonucleotides (Example 3)
Format: cell-based
In short: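 Readout is percent PKK mRNA reduction against untreated controls, by real-time PCR (RTS3454) adjusted for total RNA via RIBOGREEN. Oligonucleotides, phosphorothioate gapmers of 16 nucleosides with cEt, MOE and deoxy sugars, were delivered at 1,000 nM by electroporation to 20,000 HepaRG cells/well for roughly 24 h.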

[1] = Table 30, human PKK mRNA, HepaRG cells, 1,000 nM antisense oligonucleotide
[2] = Table 19, HepaRG cells, electroporation with 1,000 nM antisense oligonucleotide, approximately 24 hours, PKK mRNA by RT-PCR (RTS3454), relative to untreated control cells
[3] = HepaRG cells, electroporation with 1,000 nM antisense oligonucleotide, approximately 24 hours, primer probe set RTS3454, relative to untreated control cells, experiment of Table 23
[4] = HepaRG cells, electroporation with 1,000 nM antisense oligonucleotide, approx. 24 hours, PKK mRNA by RT-PCR (RTS3454), relative to untreated control cells, Table 26 experiment
[5] = PKK mRNA, HepaRG cells, 1,000 nM antisense oligonucleotide, Table 31
[6] = HepaRG cells, electroporation with 1,000 nM antisense oligonucleotide, approx. 24 hours, PKK mRNA by RT-PCR (RTS3454), relative to untreated control cells, Table 25 experiment
[7] = Table 20, HepaRG cells, electroporation with 1,000 nM antisense oligonucleotide, approximately 24 hours, PKK mRNA by RT-PCR (RTS3454), relative to untreated control cells
[8] = Table 22 experiment, HepaRG cells, electroporation with 1,000 nM antisense oligonucleotide, approx. 24 hours, PKK mRNA by RT-PCR (RTS3454), relative to untreated control cells
[9] = Table 28, HepaRG cells, 1,000 nM antisense oligonucleotide, human PKK mRNA
[10] = HepaRG cells, 1,000 nM antisense oligonucleotide, Table 29
[11] = Table 27, HepaRG cells, 1,000 nM antisense oligonucleotide, human PKK mRNA

“548388 (eA*eA*kG*dA*dG*dG*dA*dT*dG*dT*d[5mC]*dA*dG*kG*k[5mC]*eT; antisense) [compound 548388]” was tested, and the “% inhibition” value [1] was 4%.

“548387 (eT*eG*kA*dA*dG*dG*dG*d[5mC]*dG*dA*dG*dG*d[5mC]*kG*k[5mC]*eA; antisense) [compound 548387]” was tested, and the “% inhibition” value [1] was 22%.

In the case of “548131 (eA*eA*kT*dT*dT*dG*dA*d[5mC]*dT*dT*dG*dA*dA*k[5mC]*kT*e[5mC]; antisense) [compound 548131]”, the “% inhibition” value [2] is reported as 45%.

“547925 (eG*eG*kT*d[5mC]*d[5mC]*dG*dA*d[5mC]*dA*d[5mC]*dA*d[5mC]*dA*kA*kA*eA; antisense) [compound 547925]” was tested, and the “% inhibition” value [3] was 16%.

For “548256 (antisense eG*e[5mC]*kT*d[5mC]*d[5mC]*d[5mC]*d[5mC]*dA*dT*dG*d[5mC]*dA*dT*kA*k[5mC]*eT) [compound 548256]”, the “% inhibition” value [4] was 25%.

In the case of “548123 (antisense eA*eG*kA*d[5mC]*dT*d[5mC]*dT*dG*dG*dA*d[5mC]*dT*dG*k[5mC]*kT*eT) [compound 548123]”, the “% inhibition” value [2] is reported as 49%.

In the case of “548132 (eG*eA*kA*dT*dT*dT*dG*dA*d[5mC]*dT*dT*dG*dA*kA*k[5mC]*eT; antisense) [compound 548132]”, the “% inhibition” value [2] is reported as 0%.

With “548099 (antisense e[5mC]*eT*k[5mC]*dA*dG*d[5mC]*dG*dA*d[5mC]*dT*dT*dT*dG*kG*kT*eG) [compound 548099]” the “% inhibition” value [2] was 55%.

In the case of “548643 (antisense e[5mC]*e[5mC]*kT*dA*d[5mC]*d[5mC]*dT*dA*dA*dT*dT*d[5mC]*d[5mC]*kT*k[5mC]*e[5mC]) [compound 548643]”, the “% inhibition” value [5] is reported as 0%.

For “548221 (eA*e[5mC]*kT*d[5mC]*d[5mC]*dA*dG*d[5mC]*dA*dG*dA*dA*dA*kT*k[5mC]*e[5mC]; antisense) [compound 548221]”, the “% inhibition” value [6] was 49%.

For “548181 (eG*eT*k[5mC]*dA*dT*dG*dG*dA*dG*dA*dT*d[5mC]*dT*k[5mC]*kA*eG; antisense) [compound 548181]”, the “% inhibition” value [6] was 55%.

For “547893 (eG*e[5mC]*kA*dA*dT*dT*dG*dT*dT*d[5mC]*d[5mC]*dG*dG*kT*kA*e[5mC]; antisense) [compound 547893]”, the “% inhibition” value [7] was 81% and the “% inhibition” value [8] was 80%.

In the case of “548632 (antisense eG*eG*kA*dG*dA*dT*dA*dT*d[5mC]*dA*dG*dG*dT*kG*k[5mC]*eA) [compound 548632]”, the “% inhibition” value [5] is reported as 45%.

In the case of “548502 (antisense eA*eA*kT*dT*d[5mC]*dT*dT*dG*dG*dA*d[5mC]*d[5mC]*dA*kA*kG*eG) [compound 548502]”, the “% inhibition” value [9] is reported as 25%.

For “548537 (antisense e[5mC]*e[5mC]*kT*d[5mC]*dA*dA*dT*d[5mC]*d[5mC]*d[5mC]*dA*dA*d[5mC]*k[5mC]*k[5mC]*eA) [compound 548537]”, the “% inhibition” value [10] was 0%.

“548205 (eT*e[5mC]*kA*dA*dT*d[5mC]*dT*dG*dA*d[5mC]*dT*dA*dG*kT*kG*eA; antisense) [compound 548205]” was tested, and the “% inhibition” value [6] was 14%.

With “548381 (e[5mC]*e[5mC]*k[5mC]*dA*d[5mC]*dT*dA*d[5mC]*d[5mC]*dA*dT*dT*dT*kG*kG*eG; antisense) [compound 548381]” the “% inhibition” value [11] was 0%.

With “548200 (e[5mC]*eT*kA*dA*dT*dG*dT*dG*dG*d[5mC]*dA*d[5mC]*dT*kG*k[5mC]*eA; antisense) [compound 548200]” the “% inhibition” value [6] was 19%.

“547923 (eA*eT*k[5mC]*dT*dG*dG*dA*dG*dT*dG*dA*dG*dA*kA*k[5mC]*e[5mC]; antisense) [compound 547923]” was tested, and the “% inhibition” value [3] was 68%.

For “548345 (antisense e[5mC]*eT*kA*dA*d[5mC]*dT*d[5mC]*d[5mC]*dA*dT*d[5mC]*dA*d[5mC]*kT*kG*e[5mC]) [compound 548345]”, the “% inhibition” value [11] was 55%.

For “547965 (antisense eG*eG*kG*dT*dT*d[5mC]*dA*dG*dG*dT*dA*dA*dA*kG*kT*eT) [compound 547965]”, the “% inhibition” value [3] was 29%.

With “548062 (eA*eT*kA*dA*dA*dT*dT*dG*dT*dG*d[5mC]*dT*dT*kG*kT*eG; antisense) [compound 548062]” the “% inhibition” value (HepaRG cells, electroporation with 1,000 nM antisense oligonucleotide, approximately 24 hours, primer probe set RTS3454, relative to untreated control cells, experiment of Table 24) was 19%.

“547953 (e[5mC]*eT*kA*dT*dA*dT*d[5mC]*d[5mC]*dA*dG*dA*dT*dA*kT*kG*eG; antisense) [compound 547953]” was tested, and the “% inhibition” value [3] was 16%.

For “548509 (antisense eT*eG*k[5mC]*dA*dG*dG*dG*d[5mC]*dT*dG*d[5mC]*dG*d[5mC]*kA*kG*eT) [compound 548509]”, the “% inhibition” value [9] was 41%.

With “548189 (e[5mC]*eA*kT*dG*dA*dA*d[5mC]*dA*dT*d[5mC]*d[5mC]*dT*dA*kT*k[5mC]*e[5mC]; antisense) [compound 548189]” the “% inhibition” value [6] was 24%.

With “547872 (antisense eT*eG*k[5mC]*dT*dA*dA*d[5mC]*d[5mC]*dT*dT*dA*dG*dA*k[5mC]*kA*e[5mC]) [compound 547872]” the “% inhibition” value [7] was 85% and the “% inhibition” value [8] was 73%.

“548267 (antisense eG*eA*k[5mC]*d[5mC]*dT*d[5mC]*d[5mC]*dA*dG*dA*d[5mC]*dT*dA*k[5mC]*kT*eG) [compound 548267]” was tested, and the “% inhibition” value [4] was 34%.

With “548173 (e[5mC]*eT*k[5mC]*dA*dG*dT*dT*dG*d[5mC]*dG*dA*d[5mC]*d[5mC]*kT*k[5mC]*eG; antisense) [compound 548173]” the “% inhibition” value [6] was 51%.

“548559 (antisense eG*eA*kG*dA*d[5mC]*dT*dG*dA*dA*dG*d[5mC]*d[5mC]*d[5mC]*kT*k[5mC]*eA) [compound 548559]” was tested, and the “% inhibition” value [10] was 44%.

For “548455 (e[5mC]*eA*k[5mC]*d[5mC]*dG*dT*dA*d[5mC]*dT*dA*dG*dT*dT*kT*k[5mC]*e[5mC]; antisense) [compound 548455]”, the “% inhibition” value [1] was 64%.

With “548663 (antisense eG*e[5mC]*k[5mC]*d[5mC]*dT*dA*dG*dA*dA*dG*dG*dG*d[5mC]*k[5mC]*k[5mC]*eA) [compound 548663]” the “% inhibition” value [5] was 20%.

With “547958 (e[5mC]*eA*kG*dG*dT*dT*dA*dA*dA*dA*dG*dG*d[5mC]*kT*kA*eT; antisense) [compound 547958]” the “% inhibition” value [3] was 57%.

“547938 (eT*eT*kG*dT*dG*dA*d[5mC]*dT*d[5mC]*dG*dA*dT*dT*kT*kT*e[5mC]; antisense) [compound 547938]” was tested, and the “% inhibition” value [3] was 56%.

For “548324 (eA*e[5mC]*kA*dT*dA*dA*dA*dT*dT*d[5mC]*d[5mC]*d[5mC]*d[5mC]*kA*k[5mC]*eA; antisense) [compound 548324]”, the “% inhibition” value [11] was 29%.

For “547803 (eT*eG*kT*dA*d[5mC]*dA*dT*dG*dG*dA*dA*dG*d[5mC]*kT*kA*e[5mC]; antisense) [compound 547803]”, the “% inhibition” value (Table 21 experiment, HepaRG cells, electroporation with 1,000 nM antisense oligonucleotide, approx. 24 hours, PKK mRNA by RT-PCR (RTS3454), relative to untreated control cells) was 0%.

With “548650 (antisense e[5mC]*eT*kG*dA*dT*d[5mC]*d[5mC]*d[5mC]*dA*d[5mC]*dT*dT*dG*k[5mC]*k[5mC]*e[5mC]) [compound 548650]” the “% inhibition” value [5] was 21%.

With “548114 (antisense eT*eG*kG*dT*dG*dA*d[5mC]*dT*dG*d[5mC]*dA*dT*d[5mC]*kT*kG*eA) [compound 548114]” the “% inhibition” value [2] was 70%.

With “548082 (eA*eA*kG*d[5mC]*dA*dT*d[5mC]*dT*dT*dT*dT*d[5mC]*d[5mC]*k[5mC]*k[5mC]*e[5mC]; antisense) [compound 548082]” the “% inhibition” value [2] was 42%.

For “547966 (antisense eA*eG*kG*dG*dT*dT*d[5mC]*dA*dG*dG*dT*dA*dA*kA*kG*eT) [compound 547966]”, the “% inhibition” value [3] was 13%.

With “548456 (eT*eA*kT*dA*dA*d[5mC]*dA*dG*dT*dA*dT*d[5mC]*dA*k[5mC]*k[5mC]*eG; antisense) [compound 548456]” the “% inhibition” value [1] was 52%.

In the case of “548435 (antisense eA*eA*k[5mC]*dA*dA*dT*dA*dT*d[5mC]*dA*d[5mC]*dT*dG*kT*kA*e[5mC]) [compound 548435]”, the “% inhibition” value [1] is reported as 19%.

For “548416 (antisense e[5mC]*eT*kA*dT*dA*dA*d[5mC]*dT*d[5mC]*dT*dA*dA*d[5mC]*kA*kG*eT) [compound 548416]”, the “% inhibition” value [1] was 9%.

For “548391 (eG*eT*kA*d[5mC]*dA*dT*dG*dA*d[5mC]*dT*d[5mC]*d[5mC]*dA*kG*kT*eG; antisense) [compound 548391]”, the “% inhibition” value [1] was 34%.

“548178 (eG*eA*kG*dA*dT*d[5mC]*dT*d[5mC]*dA*dG*dT*dT*dG*k[5mC]*kG*eA; antisense) [compound 548178]” was tested, and the “% inhibition” value [6] was 54%.

In the case of “548367 (antisense eG*eT*kT*d[5mC]*dT*dT*dG*dA*dG*dT*dG*dT*dA*kG*kA*eG) [compound 548367]”, the “% inhibition” value [11] is reported as 52%.

“548548 (antisense eG*e[5mC]*kT*dT*dG*dT*dA*dG*dA*dA*dG*dG*dG*kA*kT*eT) [compound 548548]” was tested, and the “% inhibition” value [10] was 54%.

“548310 (eG*eA*kG*dG*dA*dG*dT*dT*dG*dG*dT*dT*dT*kA*kG*eT; antisense) [compound 548310]” was tested, and the “% inhibition” value [11] was 0%.

With “548451 (eG*eT*k[5mC]*d[5mC]*dT*dA*dT*dA*dA*d[5mC]*dT*dA*dT*kA*kA*e[5mC]; antisense) [compound 548451]” the “% inhibition” value [1] was 0%.
